Experimental data from patent publication US9834554B2, “BTK inhibitors” (MERCK SHARP & DOHME CORP., priority 2013, dated 2017).

What follows are compounds tested against BTK enzyme (recombinant full-length BTK, hBTK) (Homo sapiens (Human), UniProt Q06187) (assay: Btk enzyme activity assay, LANCE TR-FRET). Conditions: not given.
BTK enzyme (recombinant full-length BTK, hBTK), sequence (Q06187 whole entry): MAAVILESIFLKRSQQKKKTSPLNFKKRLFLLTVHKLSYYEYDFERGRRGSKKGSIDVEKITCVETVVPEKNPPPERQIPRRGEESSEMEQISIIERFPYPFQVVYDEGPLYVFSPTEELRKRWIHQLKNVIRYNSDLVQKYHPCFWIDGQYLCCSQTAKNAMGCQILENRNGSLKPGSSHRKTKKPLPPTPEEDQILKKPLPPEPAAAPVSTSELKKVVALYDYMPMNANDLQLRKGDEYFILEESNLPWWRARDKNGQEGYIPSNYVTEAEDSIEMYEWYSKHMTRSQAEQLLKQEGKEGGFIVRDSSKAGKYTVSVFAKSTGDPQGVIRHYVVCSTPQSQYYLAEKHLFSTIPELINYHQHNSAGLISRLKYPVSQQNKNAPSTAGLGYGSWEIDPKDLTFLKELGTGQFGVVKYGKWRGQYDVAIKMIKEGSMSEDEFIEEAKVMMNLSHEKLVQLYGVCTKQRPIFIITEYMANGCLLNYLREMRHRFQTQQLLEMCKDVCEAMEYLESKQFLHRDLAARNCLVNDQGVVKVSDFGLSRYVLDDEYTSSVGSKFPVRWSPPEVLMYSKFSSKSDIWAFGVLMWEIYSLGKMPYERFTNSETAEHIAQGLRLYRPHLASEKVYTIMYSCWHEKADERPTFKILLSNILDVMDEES

IC50 [nM] | SMILES
2.2 | N#CC1(C(=O)N2CCC[C@@H](c3nn(-c4ccc(C(=O)Nc5cc(C(F)(F)F)ccn5)cc4)c4c(N)nccc34)C2)CC1 [Example 27, 4-(7-amino-3-{(3R)-1-[(1-cyanocyclopropyl)carbonyl]piperidin-3-yl}-1H-pyrazolo[3,4-c]pyridin-1-yl)-N-[4-(trifluoromethyl)pyridin-2-yl]benzamide]

Same assay, conditions: read-out: BTK binding IC50; 50 pM hBTK, 2 μM biotin-A5-peptide, 25 μM ATP; 60 minute compound & enzyme incubation

IC50 [nM] | SMILES
2.2 | CC1(C(=O)N2CCO[C@@H](c3nn(-c4ccc(C(=O)Nc5cc(C(F)(F)F)ccn5)cc4)c4c(N)nccc34)C2)COC1 [Example 1, (R)-4-(7-amino-3-(4-(3-methyloxetane-3-carbonyl)morpholin-2-yl)-1H-pyrazolo[3,4-c]pyridin-1-yl)-N-(4-(trifluoromethyl)pyridin-2-yl)benzamide]
2.9 | CC(=O)N1CCO[C@@H](c2nn(-c3ccc(C(=O)Nc4cc(C(F)(F)F)ccn4)cc3)c3c(N)nccc23)C1 [Example 2, 4-{3-[(2R)-4-acetylmorpholin-2-yl]-7-amino-1H-pyrazolo[3,4-c]pyridin-1-yl}-N-[4-(trifluoromethyl)pyridin-2-yl] benzamide]
1.8 | CCC(=O)N1CCO[C@@H](c2nn(-c3ccc(C(=O)Nc4cc(C(F)(F)F)ccn4)cc3)c3c(N)nccc23)C1 [Example 3, 4-{7-amino-3-[(2R)-4-propanoylmorpholin-2-yl]-1H-pyrazolo[3,4-c]pyridin-1-yl}-N-[4-(trifluoromethyl)pyridin-2-yl] benzamide]
46.5 | COCC(=O)Nc1nccc2c([C@H]3CN(C(=O)COC)CCO3)nn(-c3ccc(C(=O)Nc4cc(C(F)(F)F)ccn4)cc3)c12 [Example 4, 4-{7-[(methoxyacetyl)amino]-3-[(2R)-4-(methoxyacetyl)morpholin-2-yl]-1H-pyrazolo[3,4-c]pyridin-1-yl}-N-[4-(trifluoromethyl)pyridin-2-yl]benzamide]
3.7 | COCC(=O)N1CCO[C@@H](c2nn(-c3ccc(C(=O)Nc4cc(C(F)(F)F)ccn4)cc3)c3c(N)nccc23)C1 [Example 5, 4-{7-amino-3-[(2R)-4-(methoxyacetyl)morpholin-2-yl]-1H-pyrazolo[3,4-c]pyridin-1-yl}-N-[4-(trifluoromethyl)pyridin-2-yl]benzamide]
28.8 | COc1ccnc(NC(=O)c2ccc(-n3nc([C@H]4CN(C(C)=O)CCO4)c4ccnc(N)c43)cc2)c1 [Example 6, 4-{3-[(2R)-4-acetylmorpholin-2-yl]-7-amino-1H-pyrazolo[3,4-c]pyridin-1-yl}-N-(4-methoxypyridin-2-yl)benzamide]
25.2 | COCC(=O)N1CCO[C@@H](c2nn(-c3ccc(C(=O)Nc4cc(OC)ccn4)cc3)c3c(N)nccc23)C1 [Example 7, 4-{7-amino-3-[(2R)-4-(methoxyacetyl)morpholin-2-yl]-1H-pyrazolo[3,4-c]pyridin-1-yl}-N-(4-methoxypyridin-2-yl)benzamide]
42.1 | COc1ccnc(NC(=O)c2ccc(-n3nc([C@H]4CN(C(=O)C5(C)COC5)CCO4)c4ccnc(N)c43)cc2)c1 [Example 8, 4-(7-amino-3-{(2R)-4-[(3-methyloxetan-3-yl)carbonyl]morpholin-2-yl}-1H-pyrazolo[3,4-c]pyridin-1-yl)-N-(4-methoxypyridin-2-yl)benzamide]
0.47 | CC1(C(=O)N2CCC[C@@H](c3nn(-c4ccc(C(=O)Nc5cc(C(F)(F)F)ccn5)cc4)c4c(N)nccc34)C2)COC1 [Example 9, (R)-4-(7-amino-3-(1-(3-methyloxetane-3-carbonyl)piperidin-3-yl)-1H-pyrazolo[3,4-c]pyridin-1-yl)-N-(4-(trifluoromethyl)pyridin-2-yl)benzamide]
0.71 | Cc1n[nH]cc1C(=O)N1CCC[C@@H](c2nn(-c3ccc(C(=O)Nc4cc(C(F)(F)F)ccn4)cc3)c3c(N)nccc23)C1 [Example 10, 4-(7-amino-3-{(3R)-1-[(3-methyl-1H-pyrazol-4-yl)carbonyl]piperidin-3-yl}-1H-pyrazolo[3,4-c]pyridin-1-yl)-N-[4-(trifluoromethyl)pyridin-2-yl]benzamide]
0.57 | CCC(=O)N1CCC[C@@H](c2nn(-c3ccc(C(=O)Nc4cc(C(F)(F)F)ccn4)cc3)c3c(N)nccc23)C1 [Example 11, 4-{7-amino-3-[(3R)-1-propanoylpiperidin-3-yl]-1H-pyrazolo[3,4-c]pyridin-1-yl}-N-[4-(trifluoromethyl)pyridin-2-yl]benzamide]
3 | Nc1nccc2c([C@@H]3CCCN(C(=O)C4CC4(F)F)C3)nn(-c3ccc(C(=O)Nc4cc(C(F)(F)F)ccn4)cc3)c12 (stereo partly drawn) [Example 12, 4-(7-amino-3-{(3R)-1-[(2,2-difluorocyclopropyl)carbonyl]piperidin-3-yl}-1H-pyrazolo[3,4-c]pyridin-1-yl)-N-[4-(trifluoromethyl)pyridin-2-yl]benzamide]
4.7 | Nc1nccc2c([C@@H]3CCCN(C(=O)c4cnon4)C3)nn(-c3ccc(C(=O)Nc4cc(C(F)(F)F)ccn4)cc3)c12 [Example 13, 4-{7-amino-3-[(3R)-1-(1,2,5-oxadiazol-3-ylcarbonyl)piperidin-3-yl]-1H-pyrazolo[3,4-c]pyridin-1-yl}-N-[4-(trifluoromethyl)pyridin-2-yl]benzamide]
3.5 | Nc1nccc2c([C@@H]3CCCN(C(=O)CC4CCC4)C3)nn(-c3ccc(C(=O)Nc4cc(C(F)(F)F)ccn4)cc3)c12 [Example 14, 4-{7-amino-3-[(3R)-1-(cyclobutylacetyl)piperidin-3-yl]-1H-pyrazolo[3,4-c]pyridin-1-yl}-N-[4-(trifluoromethyl)pyridin-2-yl]benzamide]
5.3 | Cc1noc(C)c1C(=O)N1CCC[C@@H](c2nn(-c3ccc(C(=O)Nc4cc(C(F)(F)F)ccn4)cc3)c3c(N)nccc23)C1 [Example 15, 4-(7-amino-3-{(3R)-1-[(3,5-dimethylisoxazol-4-yl)carbonyl]piperidin-3-yl}-1H-pyrazolo[3,4-c]pyridin-1-yl)-N-[4-(trifluoromethyl)pyridin-2-yl]benzamide]
0.51 | COCCC(=O)N1CCC[C@@H](c2nn(-c3ccc(C(=O)Nc4cc(C(F)(F)F)ccn4)cc3)c3c(N)nccc23)C1 [Example 16, 4-{7-amino-3-[(3R)-1-(3-methoxypropanoyl)piperidin-3-yl]-1H-pyrazolo[3,4-c]pyridin-1-yl}-N-[4-(trifluoromethyl)pyridin-2-yl]benzamide]
2.5 | Nc1nccc2c([C@@H]3CCCN(C(=O)C4CC(F)(F)C4)C3)nn(-c3ccc(C(=O)Nc4cc(C(F)(F)F)ccn4)cc3)c12 [Example 17, 4-(7-amino-3-{(3R)-1-[(3,3-difluorocyclobutyl)carbonyl]piperidin-3-yl}-1H-pyrazolo[3,4-c]pyridin-1-yl)-N-[4-(trifluoromethyl)pyridin-2-yl]benzamide]
0.9 | COCC(=O)N1CCC[C@@H](c2nn(-c3ccc(C(=O)Nc4cc(C(F)(F)F)ccn4)cc3)c3c(N)nccc23)C1 [Example 18, 4-{7-amino-3-[(3R)-1-(methoxyacetyl)piperidin-3-yl]-1H-pyrazolo[3,4-c]pyridin-1-yl}-N-[4-(trifluoromethyl)pyridin-2-yl]benzamide]
1.2 | CC(C)C(=O)N1CCC[C@@H](c2nn(-c3ccc(C(=O)Nc4cc(C(F)(F)F)ccn4)cc3)c3c(N)nccc23)C1 [Example 19, 4-{7-amino-3-[(3R)-1-(2-methylpropanoyl)piperidin-3-yl]-1H-pyrazolo[3,4-c]pyridin-1-yl}-N-[4-(trifluoromethyl)pyridin-2-yl]benzamide]
1.6 | Nc1nccc2c([C@@H]3CCCN(C(=O)C4CCC4)C3)nn(-c3ccc(C(=O)Nc4cc(C(F)(F)F)ccn4)cc3)c12 [Example 20, 4-{7-amino-3-[(3R)-1-(cyclobutylcarbonyl)piperidin-3-yl]-1H-pyrazolo[3,4-c]pyridin-1-yl}-N-[4-(trifluoromethyl)pyridin-2-yl]benzamide]
0.53 | CC(=O)N1CCC[C@@H](c2nn(-c3ccc(C(=O)Nc4cc(C(F)(F)F)ccn4)cc3)c3c(N)nccc23)C1 [Example 21, 4-{3-[(3R)-l-acetylpiperidin-3-yl]-7-amino-1H-pyrazolo[3,4-c]pyridin-1-yl}-N-[4-(trifluoromethyl)pyridin-2-yl]benzamide]
1.2 | CCOCC(=O)N1CCC[C@@H](c2nn(-c3ccc(C(=O)Nc4cc(C(F)(F)F)ccn4)cc3)c3c(N)nccc23)C1 [Example 22, 4-{7-amino-3-[(3R)-1-(ethoxyacetyl)piperidin-3-yl]-1H-pyrazolo[3,4-c]pyridin-1-yl}-N-[4-(trifluoromethyl)pyridin-2-yl]benzamide]
1.2 | COCCOCC(=O)N1CCC[C@@H](c2nn(-c3ccc(C(=O)Nc4cc(C(F)(F)F)ccn4)cc3)c3c(N)nccc23)C1 [Example 23, 4-(7-amino-3-{(3R)-1-[(2-methoxyethoxy)acetyl]piperidin-3-yl}-1H-pyrazolo[3,4-c]pyridin-1-yl)-N-[4-(trifluoromethyl)pyridin-2-yl]benzamide]
0.86 | Nc1nccc2c([C@@H]3CCCN(C(=O)C4CC4)C3)nn(-c3ccc(C(=O)Nc4cc(C(F)(F)F)ccn4)cc3)c12 [Example 24, 4-{7-amino-3-[(3R)-1-(cyclopropylcarbonyl)piperidin-3-yl]-1H-pyrazolo[3,4-c]pyridin-1-yl}-N-[4-(trifluoromethyl)pyridin-2-yl]benzamide]
0.59 | Nc1nccc2c([C@@H]3CCCN(C(=O)C4(O)CC4)C3)nn(-c3ccc(C(=O)Nc4cc(C(F)(F)F)ccn4)cc3)c12 [Example 25, 4-(7-amino-3-{(3R)-1-[(1-hydroxycyclopropyl)carbonyl]piperidin-3-yl}-1H-pyrazolo[3,4-c]pyridin-1-yl)-N-[4-(trifluoromethyl)pyridin-2-yl]benzamide]
0.81 | CC1(C(=O)N2CCC[C@@H](c3nn(-c4ccc(C(=O)Nc5cc(C(F)(F)F)ccn5)cc4)c4c(N)nccc34)C2)CC1 [Example 26, 4-(7-amino-3-{(3R)-1-[(1-methylcyclopropyl)carbonyl]piperidin-3-yl}-1H-pyrazolo[3,4-c]pyridin-1-yl)-N-[4-(trifluoromethyl)pyridin-2-yl]benzamide]
